Where “and” joins values, the source holds several entries; their conditions need not be identical. Identical values can stand only once. Like-named read-outs stand apart in the source and are kept apart here.
What was measured:
[1] = Phase I single-dose open-label pharmacokinetic study in participants with normal hepatic function and varying degrees of hepatic impairment; assay type: in vivo, human; conditions: for Vd/F / AUC(0-inf) / AUC(0-t) / AUC(0-t) at 24 h / CL/F / Cmax / Tmax / half-life: human, po, 200 mg; for Vd/F / AUC(0-inf) / AUC(0-t) / AUC(0-t) at 24 h / CL/F / Cmax / Tmax / half-life / t1/2 / tlast: plasma; for Vd/F: read-out: Vz/F; for Tmax / tlast: median
Excerpt: The primary objective was to assess the pharmacokinetic (PK) of belumosudil following a single oral dose of belumosudil in participants with mild, moderate, or severe hepatic impairment compared to healthy participants with normal hepatic function.
(§1) The secondary objectives were: to evaluate the safety and tolerability of a single oral dose of belumosudil in participants with mild, moderate, or severe hepatic impairment, and in healthy participants with normal hepatic function; to assess the PK of the belumosudil metabolites following a single oral dose of belumosudil in participants with mild, moderate, or severe hepatic impairment compared to healthy participants with normal hepatic function.
Approximately 38 participants were to be enrolled into the following groups based on their hepatic function, as determined according to the Child-Pugh system. • Group 1 (n=approximately 16): matched healthy participants with normal hepatic function • Group 2 (n=8): participants with mild hepatic impairment (Child-Pugh Class A [score of 5 or 6]) • Group 3 (n=8): participants with moderate hepatic impairment (Child-Pugh Class B [score of 7 to 9]) • Group 4 (n=6): participants with severe hepatic impairment (Child-Pugh Class C [score of 10 to 14]).
Healthy participants with normal hepatic function (Group 1) were demographically matched by age (±10 years), sex, and body mass index (BMI; +20%) to participants with hepatic impairment (Groups 2, 3, and 4). Participants with normal hepatic function could be matched to multiple participants across the 3 hepatic impairment groups (mild, moderate, and severe), but could not be matched to more than 1 participant within the same impairment group.
Pharmacokinetic blood samples were obtained from predose until 48 hours postdose (Day 3).
Summary tables, mean (+standard deviation [SD]) figures, overlaying individual figures, and individual figures by hepatic function and time postdose were provided for plasma PK concentrations. Summary tables by hepatic function were provided for all PK parameters, with the exception of terminal phase regression-related diagnostic parameters (λz, λz upper, λ z lower, λz number of points, R2-adj, and % AUCextrap), which were listed only.
All other PK parameters were regarded as secondary and were not participant to inferential statistical analysis.

[2] = Embryo-fetal developmental study in rabbits; assay type: in vivo; conditions: rabbit
P-gp = conditions: role: inhibitor; clinically relevant concentrations, in vitro; cited from earlier work
[3] = Safety and tolerability in the Phase I hepatic impairment study; assay type: in vivo, human
Excerpt: as §1, with “function. […]” for “function.”
The secondary/safety endpoints were: incidence and severity of adverse events (AEs), clinical laboratory parameters (hematology, clinical chemistry, coagulation, and urinalysis), 12-lead electrocardiogram (ECG) parameters, vital signs parameters, and physical examinations.
Treatment-emergent AEs (TEAEs) were summarized by severity and relationship to the investigational medicinal product (IMP). The frequency of TEAEs was summarized by Medical Dictionary for Regulatory Activities system organ class and preferred term, and hepatic function. Summary and frequency TEAE tables were presented for all causalities and for those considered related to the IMP.
Serum biochemistry, hematology, and coagulation data were summarized by hepatic function. In addition, all serum biochemistry, hematology, and urinalysis data outside the clinical reference ranges were listed by parameter and treatment. Vital signs and ECG data were summarized by hepatic function, together with changes from baseline.

[4] = pregnant rabbits, cited from earlier work
ROCK2 = conditions: cited from earlier work
[5] = cited from earlier work
CYP2D6 = conditions: role: substrate; in vitro; cited from earlier work
[6] = single oral 200 mg belumosudil, fed, mild hepatic impairment, geometric mean (CV %)
[7] = single oral 200 mg belumosudil, fed, moderate hepatic impairment, geometric mean (CV %)
[8] = single oral 200 mg belumosudil, fed, normal hepatic function, geometric mean (CV %)
[9] = single oral 200 mg belumosudil, fed, severe hepatic impairment, geometric mean (CV %)
[10] = single oral 200 mg belumosudil, fed, mild hepatic impairment
[11] = single oral 200 mg belumosudil, fed, moderate hepatic impairment
[12] = single oral 200 mg belumosudil, fed, normal hepatic function
[13] = single oral 200 mg belumosudil, fed, severe hepatic impairment
[14] = moderate hepatic impairment group
[15] = healthy subjects, coadministered omeprazole
[16] = healthy subjects, coadministered rabeprazole
[17] = healthy subjects, coadministered rifampin

CC(C)NC(=O)COc1cccc(-c2nc(Nc3ccc4[nH]ncc4c3)c3ccccc3n2)c1 [belumosudil, 2-{3-[4-(1H-indazol-5-ylamino)-2-quinazolinyl]phenoxy}-N-(propan-2-yl) acetamide]
Vd/F ([1]; geometric means across participants with hepatic impairment (mild, moderate, severe)): 76.6 to 105 L
Vd/F [1, 6]: 105 L
Vd/F [1, 7]: 76.6 L
Vd/F [1, 8]: 193 L
Vd/F [1, 9]: 95.7 L
AUC(0-inf) [1, 6]: 16000 ng·h/mL
AUC(0-t) [1, 6]: 15800 ng·h/mL
AUC(0-t) at 24 h [1, 6]: 15400 ng·h/mL
CL/F [1, 6]: 208 mL/min
Cmax [1, 6]: 2590 ng/mL
Tmax [1, 10]: 2.98 h
AUC(0-inf) [1, 7]: 23700 ng·h/mL
AUC(0-t) [1, 7]: 23100 ng·h/mL
AUC(0-t) at 24 h [1, 7]: 21300 ng·h/mL
CL/F [1, 7]: 140 mL/min
Cmax [1, 7]: 2490 ng/mL
half-life [1, 7]: 378 min
Tmax [1, 11]: 4 h
AUC(0-inf) [1, 8]: 12800 ng·h/mL
AUC(0-t) [1, 8]: 12000 ng·h/mL
AUC(0-t) at 24 h [1, 8]: 11300 ng·h/mL
CL/F [1, 8]: 260 mL/min
Cmax [1, 8]: 2190 ng/mL
half-life [1, 8]: 515 min
Tmax [1, 12]: 3.5 h
AUC(0-inf) [1, 9]: 30100 ng·h/mL
AUC(0-t) [1, 9]: 29600 ng·h/mL
AUC(0-t) at 24 h [1, 9]: 23400 ng·h/mL
CL/F [1, 9]: 110 mL/min
Cmax [1, 9]: 2170 ng/mL
half-life [1, 9]: 600 min
Tmax [1, 13]: 5.02 h
t1/2 [1, 6]: 5.86 h and 5.86 (45.2) h
tlast [1, 10]: 36.0 h
t1/2 [1, 7]: 6.30 (44.4) [7] h
tlast [1, 11]: 48.0 h
t1/2 [1, 8]: 8.58 (48.8) [13] h
tlast [1, 12]: 48.0 h
t1/2 [1, 9]: 10.00 (40.7) h
tlast [1, 13]: 48.0 h
maternal exposure (AUC) multiple of human exposure with adverse developmental outcomes [2]: ≥ 0.07 times the human exposure
P-gp inhibition (P-gp): inhibits
12-lead ECG parameters ([3]; individual participants): no clinically significant changes
vital signs parameters ([3]; individual participants): no clinically significant changes
number of SAEs [3, 14]: 1
number of TEAEs [3, 14]: 2 TEAEs
participants reporting TEAEs ([3]; moderate hepatic impairment group, 1 participant): 12.5%
AEs related to study drug ([3]; single oral 200 mg): no reports of AEs related to study drug
deaths ([3]; single oral 200 mg): no reports of deaths
discontinuation due to an AE ([3]; single oral 200 mg): no participants discontinued due to an AE
clinical chemistry, hematology, coagulation, or urinalysis ([3]; throughout the study): no clinically significant changes
physical examinations ([3]; throughout the study): no clinically significant findings
doses with maternal toxicity (body weight loss and mortality) ([4]; oral): ≥ 125 mg/kg/day
doses with embryo-fetal effects ([4]; oral, spontaneous abortion, post-implantation loss, malformations, decreased fetal weight): ≥ 50 mg/kg/day
maternal exposure (AUC) causing embryo-fetal mortality and malformations vs patients ([4]; organogenesis): less than those in patients at the recommended dose
effect of proton pump inhibitors on belumosudil exposure ([5]; coadministered proton pump inhibitors): decreases belumosudil exposure
effect of strong CYP3A inducers on belumosudil exposure ([5]; coadministered strong CYP3A inducers): decreases belumosudil exposure
effect of itraconazole on belumosudil exposure ([5]; healthy subjects, coadministered itraconazole): no clinically meaningful effect on belumosudil exposure
decrease in belumosudil AUC [5, 15]: 47%
decrease in belumosudil Cmax [5, 15]: 68%
decrease in belumosudil AUC [5, 16]: 80%
decrease in belumosudil Cmax [5, 16]: 87%
decrease in belumosudil AUC [5, 17]: 72%
decrease in belumosudil Cmax [5, 17]: 59%
metabolism by CYP2D6 (CYP2D6): to a lesser extent

From patent US20260315475A1 (priority 2023, published 2026)
